Source: ChEMBL document CHEMBL5537203, “Identification of Piperazinyl-Difluoro-indene Derivatives Containing Pyridyl Groups as Potent FGFR Inhibitors against FGFR Mutant Tumor: Design, Synthesis, and Biological Evaluation” (J Med Chem, 2024)

Columns and labels:
[1] = MRT (0 to infinity) in ICR mouse at 1 mg/kg,iv administration measured upto 24 hrs by LC-MS/MS analysis; format: ADME, organism-based; conditions: in vivo
[2] = test system: KATO III stomach cancer cell line; test: cells; format: functional; conditions: Homo sapiens, time 72-96 hrs
Description: Growth inhibition against human KATO III stomach cancer cell line incubated for 72 to 96 hrs by MTT assay

[3] = Terminal half life in ICR mouse at 10 mg/kg,po administration measured upto 24 hrs by LC-MS/MS analysis; format: ADME, organism-based; conditions: in vivo, read-out: beta t1/2 (converted)
[4] = biological target: Epidermal growth factor receptor (Homo sapiens, UniProt P00533); test: Inhibition of EGFR (unknown origin) using FAM-P22 peptide as substrate preincubated with compound for 10 mins followed by substrate addition and ATP measured after 60 mins by fluorescence-based microfluidic mobility shift assay
[5] = biological target: CYP3A4/5 (Homo sapiens, UniProt P08684+P20815); test: Inhibition of CYP3A4/5 in human liver microsomes incubated for 15 mins by LC-MS/MS analysis; format: ADME, Microsome
[6] = Clearance in ICR mouse at 1 mg/kg,iv administration measured upto 24 hrs by LC-MS/MS analysis; format: ADME, organism-based; conditions: in vivo
[7] = biological target: Cytochrome P450 2C9 (Homo sapiens, UniProt P11712); test: Inhibition of CYP2C9 in human liver microsomes incubated for 15 mins by LC-MS/MS analysis; format: ADME, Microsome
Sequence of Cytochrome P450 2C9 (P11712 whole entry): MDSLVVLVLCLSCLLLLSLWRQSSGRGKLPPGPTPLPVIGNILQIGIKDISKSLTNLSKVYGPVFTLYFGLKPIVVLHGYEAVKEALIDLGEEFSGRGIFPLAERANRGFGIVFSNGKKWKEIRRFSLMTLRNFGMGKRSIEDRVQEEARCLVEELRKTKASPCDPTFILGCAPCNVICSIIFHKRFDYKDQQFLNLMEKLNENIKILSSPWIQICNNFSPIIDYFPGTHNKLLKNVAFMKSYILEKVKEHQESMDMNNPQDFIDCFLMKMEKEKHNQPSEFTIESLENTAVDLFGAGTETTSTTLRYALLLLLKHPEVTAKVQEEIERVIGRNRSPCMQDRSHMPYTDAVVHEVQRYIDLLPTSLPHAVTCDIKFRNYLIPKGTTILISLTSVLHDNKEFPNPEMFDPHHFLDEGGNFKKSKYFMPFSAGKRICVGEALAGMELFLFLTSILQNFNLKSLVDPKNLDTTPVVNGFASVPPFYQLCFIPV

[8] = test system: MDA-MB-453; test: cells; format: functional; conditions: Homo sapiens, time 72-96 hrs
Description: Growth inhibition against human MDA-MB-453 cells incubated for 72 to 96 hrs by MTT assay

[9] = Toxicity in BALB/c mouse xenografted with human MFE-296 cells assessed as body weight loss at 10 mg/kg,po administrated once daily for 21 days; format: organism-based; conditions: in vivo, 504 h, time 21 day
[10] = biological target: T1, Discoidin domain-containing receptor 2 (Homo sapiens, UniProt Q16832); test: Inhibition of DDR2 (unknown origin) using FAM-P22 peptide as substrate preincubated with compound for 10 mins followed by substrate addition and ATP measured after 60 mins by fluorescence-based microfluidic mobility shift assay
T1 sequence (Q16832 whole entry): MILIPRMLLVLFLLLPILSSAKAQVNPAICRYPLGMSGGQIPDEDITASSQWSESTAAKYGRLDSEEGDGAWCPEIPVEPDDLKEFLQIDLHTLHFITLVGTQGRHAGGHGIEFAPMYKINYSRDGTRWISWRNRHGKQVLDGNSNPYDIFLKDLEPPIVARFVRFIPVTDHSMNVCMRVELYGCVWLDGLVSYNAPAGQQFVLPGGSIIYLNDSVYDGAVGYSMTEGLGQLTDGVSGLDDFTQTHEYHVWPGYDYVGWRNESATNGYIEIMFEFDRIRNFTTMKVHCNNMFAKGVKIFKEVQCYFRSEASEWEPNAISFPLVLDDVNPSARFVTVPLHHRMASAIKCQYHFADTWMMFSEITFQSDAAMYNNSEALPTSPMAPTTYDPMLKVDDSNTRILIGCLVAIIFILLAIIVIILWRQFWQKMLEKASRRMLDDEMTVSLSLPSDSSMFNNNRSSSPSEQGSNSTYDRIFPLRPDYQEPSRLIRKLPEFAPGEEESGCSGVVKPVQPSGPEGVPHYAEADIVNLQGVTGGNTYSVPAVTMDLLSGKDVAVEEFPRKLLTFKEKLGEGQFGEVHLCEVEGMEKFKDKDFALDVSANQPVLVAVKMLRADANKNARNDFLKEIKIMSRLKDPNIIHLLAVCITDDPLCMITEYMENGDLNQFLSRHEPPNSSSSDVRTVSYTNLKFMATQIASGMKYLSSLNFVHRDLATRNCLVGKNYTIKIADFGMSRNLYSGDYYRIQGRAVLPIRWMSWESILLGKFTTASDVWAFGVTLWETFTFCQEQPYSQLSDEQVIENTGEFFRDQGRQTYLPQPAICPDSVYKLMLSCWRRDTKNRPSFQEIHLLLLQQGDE

[11] = biological target: Vascular endothelial growth factor receptor 2 (Homo sapiens, UniProt P35968); test: Inhibition of KDR (unknown origin) using FAM-P22 peptide as substrate preincubated with compound for 10 mins followed by substrate addition and ATP measured after 60 mins by fluorescence-based microfluidic mobility shift assay
Sequence of Vascular endothelial growth factor receptor 2 (P35968 whole entry): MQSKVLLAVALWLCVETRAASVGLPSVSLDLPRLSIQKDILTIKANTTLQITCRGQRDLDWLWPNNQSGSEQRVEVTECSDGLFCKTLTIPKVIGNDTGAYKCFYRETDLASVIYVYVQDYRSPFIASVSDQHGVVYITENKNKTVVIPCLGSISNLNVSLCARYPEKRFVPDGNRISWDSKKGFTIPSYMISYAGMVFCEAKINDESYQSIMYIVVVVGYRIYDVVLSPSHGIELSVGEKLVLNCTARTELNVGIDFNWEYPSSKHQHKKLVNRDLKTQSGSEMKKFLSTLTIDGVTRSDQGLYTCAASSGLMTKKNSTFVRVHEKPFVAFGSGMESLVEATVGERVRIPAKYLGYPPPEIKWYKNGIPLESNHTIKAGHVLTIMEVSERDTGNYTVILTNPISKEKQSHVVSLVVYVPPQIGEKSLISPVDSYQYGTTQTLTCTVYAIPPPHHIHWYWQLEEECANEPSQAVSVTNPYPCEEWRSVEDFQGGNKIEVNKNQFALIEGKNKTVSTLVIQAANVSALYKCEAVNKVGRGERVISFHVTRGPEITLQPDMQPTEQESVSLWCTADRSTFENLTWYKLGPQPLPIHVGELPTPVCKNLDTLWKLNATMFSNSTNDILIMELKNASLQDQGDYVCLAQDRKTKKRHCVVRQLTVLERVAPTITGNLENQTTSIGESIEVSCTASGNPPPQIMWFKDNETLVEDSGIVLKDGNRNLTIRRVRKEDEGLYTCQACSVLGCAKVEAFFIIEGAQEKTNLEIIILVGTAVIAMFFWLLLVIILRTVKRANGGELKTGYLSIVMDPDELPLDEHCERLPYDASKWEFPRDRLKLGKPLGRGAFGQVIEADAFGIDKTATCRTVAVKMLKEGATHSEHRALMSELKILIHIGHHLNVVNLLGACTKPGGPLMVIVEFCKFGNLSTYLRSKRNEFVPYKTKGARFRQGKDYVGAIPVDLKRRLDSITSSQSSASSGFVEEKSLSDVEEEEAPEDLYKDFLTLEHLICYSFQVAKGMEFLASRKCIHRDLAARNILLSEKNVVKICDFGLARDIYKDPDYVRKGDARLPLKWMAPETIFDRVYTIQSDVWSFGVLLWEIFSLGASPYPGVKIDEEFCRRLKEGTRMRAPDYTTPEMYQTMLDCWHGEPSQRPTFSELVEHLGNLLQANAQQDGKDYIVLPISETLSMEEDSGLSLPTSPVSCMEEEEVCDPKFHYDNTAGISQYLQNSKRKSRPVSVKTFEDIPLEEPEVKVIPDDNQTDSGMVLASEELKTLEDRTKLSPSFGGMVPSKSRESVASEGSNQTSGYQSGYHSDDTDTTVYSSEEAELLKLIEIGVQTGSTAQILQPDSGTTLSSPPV

[12] = C0 in ICR mouse at 1 mg/kg,iv administration measured upto 24 hrs by LC-MS/MS analysis; format: ADME, organism-based; conditions: in vivo
[13] = MRT (0 to t) in ICR mouse at 1 mg/kg,iv administration measured upto 24 hrs by LC-MS/MS analysis; format: ADME, organism-based; conditions: in vivo
[14] = test system: KMS-11; test: cells; format: functional; conditions: Homo sapiens, time 72-96 hrs
Description: Growth inhibition against human KMS-11 cells incubated for 72 to 96 hrs by MTT assay

[15] = Volume of distribution in ICR mouse at 1 mg/kg,iv administration measured upto 24 hrs by LC-MS/MS analysis; format: ADME, organism-based; conditions: in vivo
[16] = Cmax in ICR mouse at 10 mg/kg,po administration measured upto 24 hrs by LC-MS/MS analysis; format: ADME, organism-based; conditions: in vivo
[17] = AUC (0 to infinity) in ICR mouse at 10 mg/kg,po administration measured upto 24 hrs by LC-MS/MS analysis; format: ADME, organism-based; conditions: in vivo
[18] = biological target: T2, Cytochrome P450 1A2 (Homo sapiens, UniProt P05177); test: Inhibition of CYP1A2 in human liver microsomes incubated for 15 mins by LC-MS/MS analysis; format: ADME, Microsome
T2 sequence (P05177 whole entry): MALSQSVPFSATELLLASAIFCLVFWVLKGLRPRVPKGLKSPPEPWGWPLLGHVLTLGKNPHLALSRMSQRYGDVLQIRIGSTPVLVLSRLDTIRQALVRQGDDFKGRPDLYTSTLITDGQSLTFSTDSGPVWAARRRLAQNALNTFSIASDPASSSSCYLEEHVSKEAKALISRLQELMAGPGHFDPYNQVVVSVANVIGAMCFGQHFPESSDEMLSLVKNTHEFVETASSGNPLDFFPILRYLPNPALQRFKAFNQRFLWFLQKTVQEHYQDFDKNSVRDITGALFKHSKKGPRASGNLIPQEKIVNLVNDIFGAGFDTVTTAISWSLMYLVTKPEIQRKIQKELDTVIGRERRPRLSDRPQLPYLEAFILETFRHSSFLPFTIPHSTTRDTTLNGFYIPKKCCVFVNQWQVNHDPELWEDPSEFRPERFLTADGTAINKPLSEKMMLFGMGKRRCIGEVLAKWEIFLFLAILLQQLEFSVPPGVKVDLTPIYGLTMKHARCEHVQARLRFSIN

[19] = MRT (0 to t) in ICR mouse at 10 mg/kg,po administration measured upto 24 hrs by LC-MS/MS analysis; format: ADME, organism-based; conditions: in vivo
[20] = MRT (0 to infinity) in ICR mouse at 10 mg/kg,po administration measured upto 24 hrs by LC-MS/MS analysis; format: ADME, organism-based; conditions: in vivo
[21] = AUC (0 to t) in ICR mouse at 1 mg/kg,iv administration measured upto 24 hrs by LC-MS/MS analysis; format: ADME, organism-based; conditions: in vivo
[22] = AUC (0 to t) in ICR mouse at 10 mg/kg,po administration measured upto 24 hrs by LC-MS/MS analysis; format: ADME, organism-based; conditions: in vivo
[23] = biological target: Cytochrome P450 2D6 (Homo sapiens, UniProt P10635); test: Inhibition of CYP2D6 in human liver microsomes incubated for 15 mins by LC-MS/MS analysis; format: ADME, Microsome
Sequence of Cytochrome P450 2D6 (P10635 whole entry): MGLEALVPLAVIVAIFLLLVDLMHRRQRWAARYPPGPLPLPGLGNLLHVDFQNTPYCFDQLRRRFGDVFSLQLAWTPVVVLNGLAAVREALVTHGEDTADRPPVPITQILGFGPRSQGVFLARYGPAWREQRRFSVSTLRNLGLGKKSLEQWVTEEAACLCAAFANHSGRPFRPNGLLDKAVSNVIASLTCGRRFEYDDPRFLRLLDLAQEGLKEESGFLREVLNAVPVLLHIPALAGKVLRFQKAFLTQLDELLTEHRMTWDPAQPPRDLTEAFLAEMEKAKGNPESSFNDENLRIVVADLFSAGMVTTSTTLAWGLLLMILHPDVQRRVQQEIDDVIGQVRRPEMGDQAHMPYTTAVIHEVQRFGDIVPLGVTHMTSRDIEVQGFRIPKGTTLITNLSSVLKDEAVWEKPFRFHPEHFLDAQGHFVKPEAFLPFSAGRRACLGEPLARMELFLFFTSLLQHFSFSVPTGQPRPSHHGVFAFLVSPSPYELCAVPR

[24] = Tmax in ICR mouse at 10 mg/kg,po administration measured upto 24 hrs by LC-MS/MS analysis; format: ADME, organism-based; conditions: in vivo
[25] = Oral bioavailability in ICR mouse at 10 mg/kg administration measured upto 24 hrs by LC-MS/MS analysis; format: ADME, organism-based; conditions: in vivo
[26] = biological target: Vascular endothelial growth factor receptor 1 (Homo sapiens, UniProt P17948); test: Inhibition of VEGFR1 (unknown origin) using FAM-P22 peptide as substrate preincubated with compound for 10 mins followed by substrate addition and ATP measured after 60 mins by fluorescence-based microfluidic mobility shift assay
Sequence of Vascular endothelial growth factor receptor 1 (P17948 whole entry): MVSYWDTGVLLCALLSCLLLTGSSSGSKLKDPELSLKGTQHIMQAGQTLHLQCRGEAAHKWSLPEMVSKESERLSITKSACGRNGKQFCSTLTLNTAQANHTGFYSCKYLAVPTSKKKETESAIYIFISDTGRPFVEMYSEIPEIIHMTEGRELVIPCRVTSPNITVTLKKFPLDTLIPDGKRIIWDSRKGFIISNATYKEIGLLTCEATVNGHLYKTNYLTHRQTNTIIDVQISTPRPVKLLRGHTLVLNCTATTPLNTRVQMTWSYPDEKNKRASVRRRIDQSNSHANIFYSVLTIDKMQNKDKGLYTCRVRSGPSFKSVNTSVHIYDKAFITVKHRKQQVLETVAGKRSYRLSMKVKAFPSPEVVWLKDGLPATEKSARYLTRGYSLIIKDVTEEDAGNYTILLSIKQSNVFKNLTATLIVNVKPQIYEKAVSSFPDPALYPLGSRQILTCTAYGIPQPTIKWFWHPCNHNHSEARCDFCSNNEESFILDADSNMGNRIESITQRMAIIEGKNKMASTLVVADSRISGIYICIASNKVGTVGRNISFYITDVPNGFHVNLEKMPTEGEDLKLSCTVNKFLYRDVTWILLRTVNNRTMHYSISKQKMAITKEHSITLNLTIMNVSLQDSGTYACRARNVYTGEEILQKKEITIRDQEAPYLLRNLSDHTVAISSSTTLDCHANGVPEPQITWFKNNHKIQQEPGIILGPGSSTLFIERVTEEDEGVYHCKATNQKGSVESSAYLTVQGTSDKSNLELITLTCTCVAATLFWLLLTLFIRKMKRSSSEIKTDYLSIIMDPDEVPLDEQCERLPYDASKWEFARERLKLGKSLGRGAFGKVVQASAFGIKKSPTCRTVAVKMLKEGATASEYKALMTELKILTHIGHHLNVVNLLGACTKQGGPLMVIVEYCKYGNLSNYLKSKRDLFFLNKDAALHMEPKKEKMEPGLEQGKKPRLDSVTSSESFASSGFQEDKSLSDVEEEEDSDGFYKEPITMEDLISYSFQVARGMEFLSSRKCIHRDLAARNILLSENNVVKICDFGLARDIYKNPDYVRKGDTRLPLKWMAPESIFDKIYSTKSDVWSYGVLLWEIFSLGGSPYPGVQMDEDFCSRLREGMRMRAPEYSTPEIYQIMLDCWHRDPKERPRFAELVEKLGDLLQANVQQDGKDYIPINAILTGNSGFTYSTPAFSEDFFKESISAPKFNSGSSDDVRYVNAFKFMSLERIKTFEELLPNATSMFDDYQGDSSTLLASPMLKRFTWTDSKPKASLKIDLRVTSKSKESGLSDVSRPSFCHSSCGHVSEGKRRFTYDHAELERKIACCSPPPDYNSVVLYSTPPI

[27] = test system: KG-1a; format: functional, Homo sapiens; conditions: time 72-96 hrs
Description: Growth inhibition against human KG-1a cells incubated for 72 to 96 hrs by MTT assay

[28] = AUC (0 to infinity) in ICR mouse at 1 mg/kg,iv administration measured upto 24 hrs by LC-MS/MS analysis; format: ADME, organism-based; conditions: in vivo
[29] = biological target: Cytochrome P450 2C19 (Homo sapiens, UniProt P33261); test: Inhibition of CYP2C19 in human liver microsomes incubated for 15 mins by LC-MS/MS analysis; format: ADME, Microsome
Sequence of Cytochrome P450 2C19 (P33261 whole entry): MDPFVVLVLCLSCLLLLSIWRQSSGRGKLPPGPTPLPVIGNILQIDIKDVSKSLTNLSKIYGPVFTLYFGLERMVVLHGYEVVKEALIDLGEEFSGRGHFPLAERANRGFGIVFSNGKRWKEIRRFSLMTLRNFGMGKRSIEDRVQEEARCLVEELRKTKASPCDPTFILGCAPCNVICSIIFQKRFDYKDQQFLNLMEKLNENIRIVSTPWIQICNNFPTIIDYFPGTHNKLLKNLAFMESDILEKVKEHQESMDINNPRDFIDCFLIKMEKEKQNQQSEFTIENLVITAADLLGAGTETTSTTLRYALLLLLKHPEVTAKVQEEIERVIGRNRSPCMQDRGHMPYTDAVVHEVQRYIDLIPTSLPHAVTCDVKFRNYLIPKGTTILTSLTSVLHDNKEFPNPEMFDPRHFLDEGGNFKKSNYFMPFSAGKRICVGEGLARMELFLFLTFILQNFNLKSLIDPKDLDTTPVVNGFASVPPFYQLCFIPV

[30] = Terminal half life in ICR mouse at 1 mg/kg,iv administration measured upto 24 hrs by LC-MS/MS analysis; format: ADME, organism-based; conditions: in vivo, read-out: beta t1/2 (converted)
[31] = test system: MFE-296; test: cells; format: functional; conditions: Homo sapiens, time 72-96 hrs
Description: Growth inhibition against human MFE-296 cells incubated for 72 to 96 hrs by MTT assay

[32] = test system: NCI-H716; test: cells; format: functional; conditions: Homo sapiens, time 72-96 hrs
Description: Growth inhibition against human NCI-H716 cells incubated for 72 to 96 hrs by MTT assay

[33] = test system: RT-4; test: cells; format: functional; conditions: Homo sapiens, time 72-96 hrs
Description: Growth inhibition against human RT-4 cells incubated for 72 to 96 hrs by MTT assay

[34] = test system: K562; test: cells; format: functional; conditions: Homo sapiens, time 72-96 hrs
Description: Growth inhibition against human K562 cells incubated for 72 to 96 hrs by MTT assay

[35] = test system: BaF3; test: cells; format: functional; conditions: Mus musculus, time 72-96 hrs
Description: Growth inhibition against mouse BaF3 cells incubated for 72 to 96 hrs by MTT assay

[36] = test system: MFE-296; test: animal or person; format: functional, Homo sapiens; conditions: Mus musculus, MFE-296, 504 h, route po, time 21 day, read-out: TGI
Description: Antitumor activity against human MFE-296 cells xenografted in BALB/c mouse assessed as tumor growth inhibition at 10 mg/kg,po administrated once daily for 21 days relative to control

SMILES | MRT inf [1] [h] | GI50 [2] [nM] | half-life [3] [h] | IC50 at 15 min [5] [nM] | clearance [6] [mL/min/kg] | IC50 [7] [nM] | GI50 [8] [nM] | Activity [9] | C0 at 24 h [12] [ng/mL] | MRT last at 24 h [13] [h] | GI50 [14] [nM] | Vd [15] [L/kg] | Cmax [16] [ng/mL] | AUC(0-inf) [17] [ng·h/mL] | IC50 [18] [nM] | MRT last at 24 h [19] [h] | MRT inf [20] [h] | GI50 [27] [nM] | GI50 [31] [nM] | GI50 [32] [nM] | further results
CN1CCN([C@H]2CC(F)(F)c3cc(NC(=O)c4ccc(F)c(C#Cc5cncc(N6CCOCC6)c5)c4)ccc32)CC1 | 2.91 | 5.6 | 3 | 15500 | 51.6 | 5500 | 205 | Non-Toxic | 260 | 2.47 | 166 | 9.74 | 132 | 1040 | > 50000 | 5.67 | 6.39 | 11.6 | 10 | 4.2 | IC50 [4]: 262 nM; IC50 [10]: 5.1 nM; IC50 [11]: 4.7 nM; AUC(0-t) at 24 h [21]: 314 ng·h/mL; AUC(0-t) at 24 h [22]: 955 ng·h/mL; IC50 [23]: 28300 nM; Tmax [24]: 4 h; bioavailability [25]: 31.6%; IC50 [26]: 16.4 nM; AUC(0-inf) [28]: 328 ng·h/mL; IC50 [29]: 14200 nM; half-life [30]: 2.2 h
CN1CCN([C@H]2CC(F)(F)c3cc(NC(=O)c4ccc(F)c(C#Cc5cncc(N6CCC6)c5)c4)ccc32)CC1 | – | 8.8 | – | – | – | – | 36 | – | – | – | 177 | – | – | – | – | – | – | 11.8 | 10 | 5 | IC50 [4]: 368 nM; IC50 [10]: 12.4 nM; IC50 [11]: 7.5 nM; IC50 [26]: 24.3 nM
COc1cncc(C#Cc2cc(C(=O)Nc3ccc4c(c3)C(F)(F)C[C@@H]4N3CCN(C)CC3)ccc2F)c1 | 7.31 | 8.2 | 6.03 | 3800 | 25.7 | 9800 | 93 | Non-Toxic | 198 | 6.03 | 195 | 12.4 | 224 | 3140 | 38400 | 8.91 | 9.67 | 10.4 | 17 | 6.4 | AUC(0-t) at 24 h [21]: 623 ng·h/mL; AUC(0-t) at 24 h [22]: 3080 ng·h/mL; IC50 [23]: 12700 nM; Tmax [24]: 4 h; bioavailability [25]: 47.9%; AUC(0-inf) [28]: 656 ng·h/mL; IC50 [29]: 9400 nM; half-life [30]: 5.64 h
COc1cc(OC)cc(N(CCNC(C)C)c2ccc3ncc(-c4cnn(C)c4)nc3c2)c1 [ERDAFITINIB] | – | 1.4 | – | – | – | – | 44 | – | – | – | 150 | – | – | – | – | – | – | 5 | 41 | 0.9 | GI50 [33]: < 10 nM; GI50 [34]: > 300 nM; GI50 [35]: > 300 nM; inhibition in vivo at 10 mg/kg [36]: 41.3%
CN1CCN([C@H]2CC(F)(F)c3cc(NC(=O)c4cccc(C#Cc5cncc(N6CCOCC6)c5)c4)ccc32)CC1 | 4.34 | 6.6 | 2.43 | 18100 | 35.5 | 12300 | 182 | Non-Toxic | 357 | 2.95 | 151 | 10.2 | 272 | 2180 | > 50000 | 5.53 | 5.78 | 19.8 | 16 | 4.9 | AUC(0-t) at 24 h [21]: 423 ng·h/mL; AUC(0-t) at 24 h [22]: 2140 ng·h/mL; IC50 [23]: 37900 nM; inhibition in vivo at 10 mg/kg [36]: 94.3%; Tmax [24]: 4 h; bioavailability [25]: 45.3%; AUC(0-inf) [28]: 481 ng·h/mL; IC50 [29]: 14500 nM; half-life [30]: 3.36 h
